Results: ChEMBL document CHEMBL3616455, “Anti-adipogenic activity of a new cyclic diarylheptanoid isolated from Alnus japonica on 3T3-L1 cells via modulation of PPARγ, C/EBPα and SREBP1c signaling” (Bioorg Med Chem Lett, 2015)
The source made the active and inactive calls. The calls are words filed in the database; no cut-off is given here.

What was measured:
[1] = species on record: Mus musculus; assay: Inhibition of PPARgamma/C/EBPalpha/SREBP1c in mouse 3T3L1 preadipocytes assessed as inhibition of adipocyte differentiation by measuring remaining lipid content at 100 uM measured on day 8 by Oil Red O staining-based spectrophotometric analysis relative to control; format: cell-based
[2] = molecular target: T1, Sterol regulatory element-binding protein 1 (Mus musculus) (UniProt Q9WTN3); assay: Inhibition of SREBP1c in mouse 3T3L1 preadipocytes assessed as downregulation of SCD-1 mRNA expression at 50 to 100 uM after 8 days by qRT-PCR analysis; format: cell-based
T1 sequence (whole entry): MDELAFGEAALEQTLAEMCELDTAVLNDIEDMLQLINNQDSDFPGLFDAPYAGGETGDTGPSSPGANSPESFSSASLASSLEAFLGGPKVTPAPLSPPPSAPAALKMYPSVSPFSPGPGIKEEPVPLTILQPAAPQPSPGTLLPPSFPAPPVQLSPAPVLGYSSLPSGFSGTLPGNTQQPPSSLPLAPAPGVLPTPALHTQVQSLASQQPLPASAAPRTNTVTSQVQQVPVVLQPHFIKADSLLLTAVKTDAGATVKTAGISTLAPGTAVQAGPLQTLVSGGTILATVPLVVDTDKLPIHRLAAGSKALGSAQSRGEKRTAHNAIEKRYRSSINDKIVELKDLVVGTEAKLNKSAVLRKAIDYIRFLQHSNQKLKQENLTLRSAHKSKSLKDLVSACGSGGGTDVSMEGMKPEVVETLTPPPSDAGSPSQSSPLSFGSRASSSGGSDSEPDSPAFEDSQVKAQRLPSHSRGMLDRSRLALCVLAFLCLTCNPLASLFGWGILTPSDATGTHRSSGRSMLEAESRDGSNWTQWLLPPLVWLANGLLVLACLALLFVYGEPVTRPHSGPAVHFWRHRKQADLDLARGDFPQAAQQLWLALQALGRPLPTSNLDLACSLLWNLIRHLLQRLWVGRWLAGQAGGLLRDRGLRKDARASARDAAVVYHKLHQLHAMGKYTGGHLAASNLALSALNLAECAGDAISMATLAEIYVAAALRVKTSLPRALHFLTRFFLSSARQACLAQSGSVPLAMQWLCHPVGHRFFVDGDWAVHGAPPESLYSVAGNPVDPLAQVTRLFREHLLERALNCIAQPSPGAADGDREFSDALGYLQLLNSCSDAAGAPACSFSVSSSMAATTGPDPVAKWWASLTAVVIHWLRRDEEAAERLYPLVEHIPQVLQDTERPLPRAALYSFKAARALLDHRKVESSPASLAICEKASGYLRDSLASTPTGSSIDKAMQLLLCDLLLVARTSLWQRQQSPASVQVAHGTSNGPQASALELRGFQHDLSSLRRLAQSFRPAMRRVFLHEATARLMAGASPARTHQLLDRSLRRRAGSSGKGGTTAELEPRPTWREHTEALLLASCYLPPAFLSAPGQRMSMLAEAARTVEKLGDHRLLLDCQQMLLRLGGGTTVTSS

[3] = molecular target: T1, Sterol regulatory element-binding protein 1 (Mus musculus); assay: Inhibition of SREBP1c in mouse 3T3L1 preadipocytes assessed as downregulation of FAS mRNA expression at 50 to 100 uM after 8 days by qRT-PCR analysis; format: cell-based
[4] = Downregulation of C/EBPbeta mRNA expression in mouse 3T3L1 preadipocytes at 50 to 100 uM measured on day 2 by qRT-PCR analysis; format: functional, cell-based; conditions: 3T3-L1
[5] = Downregulation of LPL mRNA expression in mouse 3T3L1 preadipocytes at 50 to 100 uM after 8 days by qRT-PCR analysis; format: functional, cell-based; conditions: 3T3-L1
[6] = molecular target: T1, Sterol regulatory element-binding protein 1 (Mus musculus); assay: Inhibition of SREBP1c in mouse 3T3L1 preadipocytes at 50 to 100 uM after 8 days by Western blot analysis; format: cell-based
[7] = molecular target: CCAAT/enhancer-binding protein alpha (Mus musculus) (UniProt P53566); assay: Inhibition of C/EBPalpha in mouse 3T3L1 preadipocytes at 50 to 100 uM after 8 days by Western blot analysis relative to control; format: cell-based
[8] = molecular target: T2, Peroxisome proliferator-activated receptor gamma (Mus musculus) (UniProt P37238); assay: Inhibition of PPARgamma in mouse 3T3L1 preadipocytes at 50 to 100 uM after 8 days by Western blot analysis relative to control; format: cell-based
T2 sequence (whole entry): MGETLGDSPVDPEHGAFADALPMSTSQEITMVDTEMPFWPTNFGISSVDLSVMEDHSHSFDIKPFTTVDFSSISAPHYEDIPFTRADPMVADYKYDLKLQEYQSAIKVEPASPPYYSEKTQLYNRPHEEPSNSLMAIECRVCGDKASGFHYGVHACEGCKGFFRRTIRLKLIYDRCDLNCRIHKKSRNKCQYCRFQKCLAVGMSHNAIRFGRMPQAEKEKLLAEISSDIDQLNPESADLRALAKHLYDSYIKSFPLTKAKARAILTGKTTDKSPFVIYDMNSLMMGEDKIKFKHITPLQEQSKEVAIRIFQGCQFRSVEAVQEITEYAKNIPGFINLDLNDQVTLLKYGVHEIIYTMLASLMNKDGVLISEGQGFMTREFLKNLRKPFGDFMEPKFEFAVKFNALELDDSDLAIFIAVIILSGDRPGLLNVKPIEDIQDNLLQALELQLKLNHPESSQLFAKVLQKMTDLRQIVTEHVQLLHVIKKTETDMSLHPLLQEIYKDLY

[9] = Downregulation of C/EBPdelta mRNA expression in mouse 3T3L1 preadipocytes at 50 to 100 uM measured on day 2 by qRT-PCR analysis; format: functional, cell-based; conditions: 3T3-L1

CCAAT/enhancer-binding protein alpha (Mus musculus), sequence (P53566 whole entry): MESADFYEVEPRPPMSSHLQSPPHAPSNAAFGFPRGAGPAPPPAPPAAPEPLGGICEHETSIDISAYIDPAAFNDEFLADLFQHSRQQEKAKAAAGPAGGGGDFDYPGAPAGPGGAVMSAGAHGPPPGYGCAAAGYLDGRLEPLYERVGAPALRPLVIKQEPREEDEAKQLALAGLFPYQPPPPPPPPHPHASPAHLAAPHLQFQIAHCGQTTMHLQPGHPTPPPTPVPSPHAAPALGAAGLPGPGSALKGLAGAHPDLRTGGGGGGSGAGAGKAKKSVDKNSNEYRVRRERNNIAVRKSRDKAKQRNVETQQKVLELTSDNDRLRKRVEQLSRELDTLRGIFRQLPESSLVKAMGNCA

Structure (SMILES): Oc1ccc2cc1-c1cc(ccc1O)CC(O)C(O)CC(O)C(O)C2 (stereo not given)
- Activity [1]: 58.5%

Structure (SMILES): O=C(CCc1ccc(O)c(O)c1)C[C@H](CCc1ccc(O)c(O)c1)O[C@@H]1OC[C@@H](O)[C@H](O)[C@H]1OC(=O)/C=C/c1ccccc1
- Activity [1]: 85.6%

Structure (SMILES): O=C(O[C@@H]1Cc2c(O)cc(O)cc2O[C@@H]1c1cc(O)c(O)c(O)c1)c1cc(O)c(O)c(O)c1
- Activity [1]: 54.5%

Structure (SMILES): O=C(CCc1ccc(O)c(O)c1)C[C@H](CCc1ccc(O)c(O)c1)O[C@@H]1OC[C@@H](O)[C@H](O)[C@H]1OC(=O)/C=C/c1ccc(O)cc1
- Activity [1]: 95.7%

Structure (SMILES): COc1cc(/C=C/C(=O)O[C@H]2[C@H](O[C@@H](CCc3ccc(O)c(O)c3)CC(=O)CCc3ccc(O)c(O)c3)OC[C@@H](O)[C@@H]2O)ccc1O
- Activity [1]: 71.3%

Structure (SMILES): O=C1CCc2ccc(O)c(c2)-c2cc(ccc2O)CCC(=O)C1O
- inhibition [2]: Active
- inhibition [3]: Active
- Activity [1]: 11.6%
- Activity [4]: Active
- Activity [5]: Active
- inhibition [6]: Active
- inhibition [7]: Active
- inhibition [8]: Active
- Activity [9]: Active

Structure (SMILES): O=C1CCCCc2ccc(O)c(c2)-c2cc(ccc2O)CC1
- Activity [1]: 54.4%
